Measurements published in patent publication EP1095657A2, “Compositions for the regulation of cytokine activity” (priority 1992, dated 1994).
Marks after values point to notes of the source that are not given here.

Assays:
[1] = system: secretion of active TNF-α by activated human CD4+ T cells; experiment: Bioassay of TNF-α activity using human CD4+ T cells derived from PBLs (human PBL bioassay); conditions: concentration that gave the Inhmax or Augmax of the same line
ICAM-1 = experiment: TNF-α-induced expression of adhesion molecules by endothelial cells (ELISA); conditions: 1 h pretreatment of EC, TNFα alone 2.2±0.2
[2] = system: experimental DTH reaction in mice; experiment: In vivo bioassay of inhibition of experimental DTH reactivity (oxazolone ear swelling); parameters: species or system mice (BALB/c or CD1); conditions: for "R" value: inhibitory, 0 = no effect; for DTH Response: at the dose giving Inhmax; for Dose: dose giving Inhmax
Procedure: Groups of inbred BALB/c (Jackson Laboratories, Bar Harbor, ME) or of outbred CD1 (Weizmann Institute Animal Breeding Center, Rehovot, Israel) mice are sensitized on the shaved abdominal skin with 100 µl of 2% oxazolone (OX) in acetone/olive oil (4/1, v/v) applied topically. DTH sensitivity is elicited 5 days later as follows: mice are challenged with 20 µl of 0.5% OX (10 µl administered topically to each side of the ear) in acetone/olive oil. A constant area of the ear is measured immediately before challenge and 24 and 48 h later with a Mitutoyo engineer's micrometer. The individual measuring ear swelling is blinded to the identity of the groups of mice. The increment (△) of ear swelling is expressed as the mean in units of 10^-2 mm or 10^-4 inch (+SE) depending on the micrometer that is used. Percent inhibition is calculated as follows: %Inhibition= 1-((Treated-negative control)/(positive control-negative control)) [formula]
Mice are treated with LMWH as in Example 5.1, injected the day before primary sensitization to OX. On the fifth day after sensitization to OX, the mice are challenged to induce a DTH reaction, as described above.
The positive control is the DTH reaction elicited in immunized mice in the absence of treatment with LMWH. The negative control is the background swelling produced by the antigen in naive (non-immunized) mice.
BALB/c mice (at least 5 mice per group) were sensitized on the shaved abdomen with 3% 4-ethoxymethylene-2-phenyl oxazolone (OX; BDH Chemicals, GB) in acetone/olive oil applied topically. DTH sensitivity was elicited 5 days later as follows. Mice were challenged with 0.5% OX in acetone/olive oil. The ear was measured immediately before challenge and 24 h later with Mitutoyo engineer's micrometer (Japan). The individual measuring the swelling of the ear was blinded to the identity of the groups of mice. To interfere with DTH response, the low molecular weight immuno-regulatory fractions, diluted in PBS, were administrated subcutaneously into the back of the treated mice at the indicated time schedules and concentrations. Treated mice were inspected during and after (>2 months) the treatment and no major side-effects were observed clinically.
In particular, CD1 mice (available from the Weizmann Institute Animal Breeding Center, Rehovot, Israel), 4-12 mice per group, were treated as described in Section 5.2 or 6.8.

[3] = system: experimental DTH reaction in mice; experiment: as above; parameters: species or system mice (BALB/c or CD1); conditions: inhibitory; administered orally
ELAM-1 = experiment: TNF-α-induced expression of adhesion molecules by endothelial cells (ELISA); conditions: for Recombinant human TNFα-induced adhesion molecules (O.D 492): 1 h pretreatment of EC, TNFα alone 1.2±0.1
[4] = system: adjuvant arthritis in Lewis rats; experiment: Adjuvant arthritis (AA) in rats; assay type: in vivo; conditions: s.c. weekly from 1 day before induction; day 24; dose not given
[5] = system: LPS-induced inflammation of the cornea; experiment: LPS-induced inflammation of the rat cornea; assay type: in vivo, Lewis rats
Procedure: LPS-induced inflammation of the cornea is TNF dependent, as shown by the work of Vanderhagen, C. and co-workers in the Netherlands, "Kinetics of Intraocular TNF and IL-6 in Endotoxin-Induced Uveitis in the Rat," submitted for publication. Using a 30-gauge needle, LPS (5 ng) was injected into the cornea of Lewis rats. After one day, separate groups of rats, 2 to a group (or 4 eyes to a group), were then injected subcutaneously with phosphate-buffered saline (0.05 ml) or H-1020 (at a dose of either 50 ng/rat or 200 ng/rat). The effects, if any, were scored as follows:
in which the sum of the points is used as the total score.

O=C(O)C1=C[C@H](O)[C@@H](O)[C@H](O[C@H]2[C@H](O)[C@@H](NS(=O)(=O)O)C(O)O[C@@H]2COS(=O)(=O)O)O1 (stereo partly drawn) [H-1020, 4-deoxy-4-en-iduronic acid-(α-1,4)-2-deoxy-2-N-sulfate-6-O-sulfateglucosamine]
conc [1]: 1 pg/mL
Recombinant human TNFα-induced adhesion molecules (O.D 492) (ICAM-1; 50 pg/ml, no TNFα 0.18±0.01): 1.2±0.1 O.D 492
Recombinant human TNFα-induced adhesion molecules (O.D 492) (ICAM-1; 100 pg/ml): 1.5±0.07 O.D 492
Inhmax ([2]; CD1 mice, s.c.): 66%
DTH ([2]; CD1 mice, s.c., at that dose, value in parentheses in the cell taken as positive control, not reported): 6.7 ± 1.1 (19.6 ± 1.2) 10^-2 mm
"R" value ([2]; CD1 mice, s.c.): 1.65 x 10^5 % x (μg/gm)^-1
DTH Response ([2]; administered orally): 5.9 ± 0.9 10^-2mm
DTH Response ([2]; subcutaneous): 4.7 ± 0.7 10^-2mm
Dose ([2]; administered orally): 0.128^a µg/gm mouse
Dose ([2]; subcutaneous): 0.0005 µg/gm mouse
"R" value ([2]; maximum % inhibition of DTH divided by the dose giving it, s.c.): 146,000 % x (µg/gm)^-1
Inhmax ([2]; maximum inhibition of DTH, administered orally): 68%
Inhmax ([2]; maximum inhibition of DTH, subcutaneous): 73%
"R" value [3]: 531 % x (µg/gm)^-1
Recombinant human TNFα-induced adhesion molecules (O.D 492) (ELAM-1; 50 pg/ml, no TNFα 0.12±0.01): 0.7±0.05 O.D 492
Recombinant human TNFα-induced adhesion molecules (O.D 492) (ELAM-1; 100 pg/ml): 0.9±0.03 O.D 492
inhibition of the up regulation of EC expression of adhesion molecules induced by TNF-α (ELAM-1; ELAM-1 and ICAM-1 not told apart in the sentence): up to 50%
inhibition of the development of AA relative to control [4]: about 30%
effect on the LPS-induced inflammation score, in words ([5]; 50 ng/rat s.c. one day after LPS): effective to suppress the effects of the local LPS-induced inflammation
effect on the LPS-induced inflammation score, in words ([5]; 200 ng/rat s.c. one day after LPS): failed to provide a significant effect
